Experimental data taken from US8586608B2, “Quinazoline derivatives and pharmaceutical compositions containing them” (Boehringer Ingelheim Pharma GmbH & Co. KG, priority 2000, dated 2013).

Target: T1, human EGF-receptor kinase (Homo sapiens, UniProt P00533)
T1 construct: GST; made in house; host or cells: Sf9 insect cells (baculovirus)
Assay: Inhibition of human EGF-receptor kinase (ELISA, bio-pEY substrate)
Assay type: biochemical
Settings: cytoplasmic tyrosine kinase domain (Met664-Ala1186) as GST fusion protein; substrate pEY (4:1)/bio-pEY; 30 minutes at ambient temperature
Description: To do this, the protein was expressed in Sf9 insect cells as a GST fusion protein using the Baculovirus expression system.
The enzyme activity was measured in the presence or absence of the test compounds in serial dilutions. The polymer pEY (4:1) produced by SIGMA was used as the substrate. Biotinylated pEY (bio-pEY) was added as the tracer substrate. Every 100 μl of reaction solution contained 10 μl of the inhibitor in 50% DMSO, 20 μl of the substrate solution (200 mM HEPES pH 7.4, 50 mM magnesium acetate, 2.5 mg/ml poly(EY), 5 μg/ml bio-pEY) and 20 μl of enzyme preparation. The enzyme reaction was started by the addition of 50 μl of a 100 μM ATP solution in 10 mM magnesium chloride. The dilution of the enzyme preparation was adjusted so that the incorporation of phosphate into the bio-pEY was linear in terms of time and quantity of enzyme. The enzyme preparation was diluted in 20 mM HEPES pH 7.4, 1 mM EDTA, 130 mM common salt, 0.05% Triton X-100, 1 mM DTT and 10% glycerol.
The enzyme assays were carried out at ambient temperature over a period of 30 minutes and were ended by the addition of 50 μl of a stopping solution (250 mM EDTA in 20 mM HEPES pH 7.4). 100 μl were placed on a streptavidin-coated microtiter plate and incubated for 60 minutes at ambient temperature. Then the plate was washed with 200 μl of a washing solution (50 mM Tris, 0.05% Tween 20). After the addition of 100 μl of a HRPO-labelled anti-PY antibody (PY20H Anti-PTyr:HRP produced by Transduction Laboratories, 250 ng/ml), it was incubated for 60 minutes. Then the microtiter plate was washed three times with 200 μl of washing solution. The samples were then combined with 100 μl of a TMB-peroxidase solution (A:B=1:1, Kirkegaard Perry Laboratories). After 10 minutes, the reaction was stopped. The extinction was measured at OD450nm with an ELISA reader. All data points were measured three times.
The data were matched by means of an iterative calculation using an analytical program for sigmoidal curves (Graph Pad Prism Version 3.0) with variable Hill pitch.

T1 sequence (P00533 688-1210): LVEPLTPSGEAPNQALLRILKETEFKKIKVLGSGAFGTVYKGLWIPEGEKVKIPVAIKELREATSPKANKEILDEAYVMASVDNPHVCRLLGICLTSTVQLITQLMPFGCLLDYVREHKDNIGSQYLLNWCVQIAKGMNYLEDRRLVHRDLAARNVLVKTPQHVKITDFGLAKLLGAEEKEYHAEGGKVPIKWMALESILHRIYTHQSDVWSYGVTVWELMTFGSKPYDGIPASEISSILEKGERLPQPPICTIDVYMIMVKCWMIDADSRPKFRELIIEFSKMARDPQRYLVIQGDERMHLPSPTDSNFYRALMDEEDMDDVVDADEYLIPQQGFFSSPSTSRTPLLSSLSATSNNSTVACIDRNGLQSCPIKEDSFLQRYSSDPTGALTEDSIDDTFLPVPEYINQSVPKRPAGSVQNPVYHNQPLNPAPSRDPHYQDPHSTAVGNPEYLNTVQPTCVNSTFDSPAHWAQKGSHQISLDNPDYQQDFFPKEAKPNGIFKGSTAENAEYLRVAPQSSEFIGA

SMILES	IC50 [nM]
COCCN(C)CC=CC(=O)Nc1cc2c(N[C@H](C)c3ccccc3)ncnc2cc1OCC1CC1 [1 (5), 4-[(R)-(1-phenylethyl)amino]-6-({4-[N-(2-methoxyethyl)-N-methylamino]-1-oxo-2-buten-1-yl}amino)-7-cyclopropylmethoxyquinazoline]	3
CN(C)CC=CC(=O)Nc1cc2c(Nc3ccc(F)c(Cl)c3)ncnc2cc1OC1CCCC1 [1 (2), 4-[(3-chloro-4-fluorophenyl)amino]-6-{[4-(N,N-dimethylamino)-1-oxo-2-buten-1-yl]amino}-7-cyclopentyloxyquinazoline]	0.6
COCCN(CC=CC(=O)Nc1cc2c(N[C@H](C)c3ccccc3)ncnc2cc1OCC1CC1)CCOC [1 (3), 4-[(R)-(1-phenylethyl)amino]-6-{[4-(N,N-bis(2-methoxyethyl)amino)-1-oxo-2-buten-1-yl]amino}-7-cyclopropylmethoxyquinazoline]	4
CC(C)N(C)CC=CC(=O)Nc1cc2c(Nc3ccc(F)c(Cl)c3)ncnc2cc1O[C@H]1CCOC1 [1 (34), 4-[(3-chloro-4-fluorophenyl)amino]-6-{[4-(N-isopropyl-N-methylamino)-1-oxo-2-buten-1-yl]amino}-7-[(s)-(tetrahydrofuran-3-yl)oxy]quinazoline]	0.4
CN(CC=CC(=O)Nc1cc2c(Nc3ccc(F)c(Cl)c3)ncnc2cc1OC1CCCC1)C1CC1 [1 (22), 4-[(3-chloro-4-fluorophenyl)amino]-6-{[4-(N-cyclopropyl-N-methylamino)-1-oxo-2-buten-1-yl]amino}-7-cyclopentyloxyquinazoline]	1
COCCN(C)CC=CC(=O)Nc1cc2c(Nc3ccc(F)c(Cl)c3)ncnc2cc1OCC1CC1 [Example 1, [(3-chloro-4-fluorophenyl)amino]-6-({4-[N-(2-methoxyethyl)-N-methylamino]-1-oxo-2-buten-1-yl}amino)-7-cyclopropylmethoxyquinazoline]	0.7
CN(C)CC=CC(=O)Nc1cc2c(Nc3ccc(F)c(Cl)c3)ncnc2cc1OC[C@@H]1CCCO1 [1 (32), 4-[(3-chloro-4-fluorophenyl)amino]-6-{[4-(N,N-dimethylamino)-1-oxo-2-buten-1-yl]amino}-7-[(s)-(tetrahydrofuran-2-yl)methoxy]quinazoline]	0.3
CCN(C)CC=CC(=O)Nc1cc2c(Nc3ccc(F)c(Cl)c3)ncnc2cc1O[C@H]1CCOC1 [1 (33), 4-[(3-chloro-4-fluorophenyl)amino]-6-{[4-(N-ethyl-N-methylamino)-1-oxo-2-buten-1-yl]amino}-7-[(s)-(tetrahydrofuran-3-yl)oxy]quinazoline]	0.5

Tested on: not given
Assay: not given
Settings: not given

SMILES	melting point [°C]
O=C(C=CCN1CCOCC1)Nc1cc2c(Nc3ccc(F)c(Cl)c3)ncnc2cc1O[C@H]1CCOC1 [Example 1 (35), 4-[(3-chloro-4-fluorophenyl)amino]-6-{[4-(morpholin-4-yl)-1-oxo-2-buten-1-yl]amino}-7-[(s)-(tetrahydrofuran-3-yl)oxy]quinazoline]	184 to 185
CN(C)CC=CC(=O)Nc1cc2c(Nc3ccc(F)c(Cl)c3)ncnc2cc1OC[C@H]1CCCO1 [Example 1 (31), 4-[(3-chloro-4-fluorophenyl)amino]-6-{[4-(N,N-dimethylamino)-1-oxo-2-buten-1-yl]amino}-7-[(R)-(tetrahydrofuran-2-yl)methoxy]quinazoline]	110 to 112
COCCN(CC=CC(=O)Nc1cc2c(Nc3ccc(F)c(Cl)c3)ncnc2cc1OCC1CCOCC1)CCOC [Example 1 (30), 4-[(3-chloro-4-fluorophenyl)amino]-6-({4-[N,N-bis(2-methoxyethyl)amino]-1-oxo-2-buten-1-yl}amino)-7-[(tetrahydropyran-4-yl)methoxy]quinazoline]	100 to 102
CN(CC=CC(=O)Nc1cc2c(Nc3ccc(F)c(Cl)c3)ncnc2cc1OC1CCCC1)C[C@H]1CCCO1 [Example 1 (26), 4-[(3-chloro-4-fluorophenyl)amino]-6-[(4-{(R)—N-[(tetrahydrofuran-2-yl)methyl]-N-methylamino}-1-oxo-2-buten-1-yl)amino]-7-cyclopentyloxyquinazoline]	117 to 121
CN(CC=CC(=O)Nc1cc2c(Nc3ccc(F)c(Cl)c3)ncnc2cc1OCC1CC1)CC1CCOCC1 [Example 1 (24), 4-[(3-chloro-4-fluorophenyl)amino]-6-[(4-{N-[(tetrahydropyran-4-yl)methyl]-N-methylamino}-1-oxo-2-buten-1-yl)amino]-7-cyclopropylmethoxyquinazoline]	141
CN(CC=CC(=O)Nc1cc2c(Nc3ccc(F)c(Cl)c3)ncnc2cc1OCC1CC1)C[C@H]1CCCO1 [Example 1 (19), 4-[(3-chloro-4-fluorophenyl)amino]-6-[(4-{(R)—N-[(tetrahydrofuran-2-yl)methyl]-N-methylamino}-1-oxo-2-buten-1-yl)amino]-7-cyclopropylmethoxyquinazoline]	149 to 153
CN(CC=CC(=O)Nc1cc2c(Nc3ccc(F)c(Cl)c3)ncnc2cc1OC1CCCC1)C1CC1 [1 (22), 4-[(3-chloro-4-fluorophenyl)amino]-6-{[4-(N-cyclopropyl-N-methylamino)-1-oxo-2-buten-1-yl]amino}-7-cyclopentyloxyquinazoline]	140
CCN(C)CC=CC(=O)Nc1cc2c(Nc3ccc(F)c(Cl)c3)ncnc2cc1O[C@H]1CCOC1 [1 (33), 4-[(3-chloro-4-fluorophenyl)amino]-6-{[4-(N-ethyl-N-methylamino)-1-oxo-2-buten-1-yl]amino}-7-[(s)-(tetrahydrofuran-3-yl)oxy]quinazoline]	154 to 157
O=C(C=CCN1CCOCC1)Nc1cc2c(Nc3ccc(F)c(Cl)c3)ncnc2cc1OCC1CCOCC1 [Example 1 (29), 4-[(3-chloro-4-fluorophenyl)amino]-6-{[4-(morpholin-4-yl)-1-oxo-2-buten-1-yl]amino}-7-[(tetrahydropyran-4-yl)methoxy]quinazoline]	174
